# Laboratory results as given in ChEMBL document CHEMBL3871290, “3-Cyano-6-(5-methyl-3-pyrazoloamino) pyridines (Part 2): A dual inhibitor of Aurora kinase and tubulin polymerization” (Bioorg Med Chem Lett, 2016).
# Calls of active or inactive are those of the source. No cut-off for these calls is given here.
# How the values were obtained:
# [1] = test system: Cc1ccc(OCCNc2nc(Nc3cc(C)[nH]n3)cc(C)c2C#N)cn1; settings: Homo sapiens
# Description: Activity at YES (unknown origin)
# [2] = organism: Homo sapiens; experiment: Inhibition of Aurora kinase (unknown origin) assessed as reduction in histone H3 phosphorylation at Ser10 residue
# [3] = organism: Sus scrofa; experiment: Inhibition of pig brain tubulin polymerization at 10 uM in presence of GTP relative to control
# [4] = test system: HCT-116; experiment: Antitumor activity against human HCT116 cells xenografted subcutaneously in mouse assessed as tumor growth inhibition at 100 mg/kg, po qd after 14 days; type: functional, organism-based
# [5] = test system: HCT-116; experiment: Antitumor activity against human HCT116 cells xenografted subcutaneously in mouse assessed as tumor growth inhibition at 30 mg/kg, po qd after 14 days; type: functional
# [6] = test system: Cc1ccc(OCCNc2nc(Nc3cc(C)[nH]n3)cc(C)c2C#N)cn1; settings: Homo sapiens; remark: listed apart in the source
# Description: Activity at cSRC (unknown origin)
# Sequence of Tyrosine-protein kinase Yes (Homo sapiens), P07947 (P07947 whole entry): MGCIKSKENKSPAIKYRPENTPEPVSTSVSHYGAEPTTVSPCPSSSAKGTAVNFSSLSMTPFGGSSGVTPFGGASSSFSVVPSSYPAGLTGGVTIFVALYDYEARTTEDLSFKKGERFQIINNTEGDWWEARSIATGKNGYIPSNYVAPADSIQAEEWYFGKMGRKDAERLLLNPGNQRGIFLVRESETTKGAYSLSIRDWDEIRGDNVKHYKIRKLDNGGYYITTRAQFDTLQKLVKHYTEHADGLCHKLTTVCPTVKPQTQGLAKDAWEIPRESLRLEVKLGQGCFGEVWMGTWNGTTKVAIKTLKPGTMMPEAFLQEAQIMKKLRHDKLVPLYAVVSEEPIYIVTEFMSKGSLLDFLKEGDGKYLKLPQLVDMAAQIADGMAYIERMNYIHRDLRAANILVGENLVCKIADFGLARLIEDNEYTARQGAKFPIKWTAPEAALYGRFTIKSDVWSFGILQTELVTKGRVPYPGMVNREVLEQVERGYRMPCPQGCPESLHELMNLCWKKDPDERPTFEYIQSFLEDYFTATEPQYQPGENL
molecule,measurement,setting,value
"Tyrosine-protein kinase Yes (Homo sapiens), P07947",Km,[1],45 µM
Cc1ccc(OCCNc2nc(Nc3cc(C)[nH]n3)cc(C)c2C#N)cn1,inhibition,[2],Active
same,inhibition,[3],63%
Cc1cc(Nc2cc(N3CCN(C)CC3)nc(Sc3ccc(NC(=O)C4CC4)cc3)n2)n[nH]1,TGI,[4],68%
same,TGI,[5],60%
Proto-oncogene tyrosine-protein kinase Src (Homo sapiens) (from UniProt P12931),Km,[6],200 µM
